Measurements reported in US7173133B2, “Diaza-spiropiperidine derivatives” (Hoffmann-La Roche Inc., priority 2004, dated 2007).

target: T1, mGlyT-1b (Mus musculus, UniProt P28571); assay: Glycine uptake inhibition assay (mGlyT-1b); assay type: cell-based; conditions: [3H]-glycine uptake in Flp-in-CHO cells transfected with mGlyT-1b cDNA; values of some enantiomers
T1 sequence (P28571 1-651 isoform P28571-2): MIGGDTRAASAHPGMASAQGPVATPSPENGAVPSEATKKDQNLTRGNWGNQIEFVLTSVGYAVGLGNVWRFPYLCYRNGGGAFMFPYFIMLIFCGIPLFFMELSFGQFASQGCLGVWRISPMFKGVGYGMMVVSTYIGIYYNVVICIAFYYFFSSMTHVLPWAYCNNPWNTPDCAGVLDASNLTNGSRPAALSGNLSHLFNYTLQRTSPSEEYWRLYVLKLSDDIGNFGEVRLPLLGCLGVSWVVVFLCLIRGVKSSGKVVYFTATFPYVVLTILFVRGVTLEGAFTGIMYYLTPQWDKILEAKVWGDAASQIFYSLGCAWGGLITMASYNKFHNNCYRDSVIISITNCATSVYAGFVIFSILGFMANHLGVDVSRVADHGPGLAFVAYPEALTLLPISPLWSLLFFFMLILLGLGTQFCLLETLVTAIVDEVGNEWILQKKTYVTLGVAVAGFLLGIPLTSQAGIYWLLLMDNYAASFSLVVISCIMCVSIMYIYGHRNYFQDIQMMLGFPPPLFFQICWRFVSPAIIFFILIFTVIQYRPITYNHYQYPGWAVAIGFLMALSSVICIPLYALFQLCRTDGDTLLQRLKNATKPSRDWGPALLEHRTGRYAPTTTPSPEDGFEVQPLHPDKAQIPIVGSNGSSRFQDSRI
Description: DMEM complete medium: Nutrient mixture F-12 (Gibco Life-technologies), fetal bovine serum (FBS) 5%, (Gibco life technologies), Penicillin/Streptomycin1% (Gibco life technologies), Hygromycin 0.6 mg/ml (Gibco life technologies), Glutamine 1 mM Gibco life technologies).
Uptake buffer (UB): 150 mM NaCl, 10 mM Hepes-Tris, pH 7.4, 1 mM CaCl2, 2.5 mM KCl, 2.5 mM MgSO4, 10 mM (+) D-glucose.
Flp-in™-CHO (Invitrogen Cat n° R758–07) cells stably transfected with mGlyT1b cDNA.
Glycine Uptake Inhibition Assay (mGlyT-1b)
On day 1 mammalian cells, (Flp-in™-CHO), transfected with mGlyT-1b cDNA, were plated at the density of 40,000 cells/well in complete F-12 medium, without hygromycin in. 96-well culture plates. On day 2, the medium was aspirated and the cells were washed twice with uptake buffer (UB). The cells were then incubated for 20 min at 22° C. with either (i) no potential competitor, (ii) 10 mM non-radioactive glycine, (iii) a concentration of a potential inhibitor. […] A solution was then immediately added containing [^3H]-glycine 60 nM (11–16 Ci/mmol) and 25 μM non-radioactive glycine. The plates were incubated with gentle shaking and the reaction was stopped by aspiration of the mixture and washing (three times) with ice-cold UB. The cells were lysed with scintillation liquid, shaken 3 hours and the radioactivity in the cells was counted using a scintillation counter.

Structure (SMILES) | IC50 [nM]
O=C1NCC(c2ccccc2)C12CCN([C@@H]1CCCC[C@@H]1c1ccccc1)CC2 (mixture of isomers) [Example 1, cis-rac-4-Phenyl-8-(2-phenyl-cyclohexyl)-2,8-diaza-spiro[4.5]decan-1-one] | 61
Cc1ccc([C@H]2CCCC[C@H]2N2CCC3(CC2)C(=O)NCC3c2ccccc2)cc1 (mixture of isomers) [Example 2, Cis-rac-4-Phenyl-8-(2-p-tolyl-cyclohexyl)-2,8-diaza-spiro[4.5]decan-1-one] | 105
O=C1NCC(c2ccccc2)C12CCN([C@@H]1CCCC[C@@H]1c1ccc(F)cc1)CC2 (mixture of isomers) [Example 6, cis-rac-8-[2-(4-Fluoro-phenyl)-cyclohexyl]-4-phenyl-2,8-diaza-spiro[4.5]decan-1-one] | 48
O=C1NCC(c2ccc(F)cc2)C12CCN([C@@H]1CCCC[C@@H]1c1ccc(C(F)(F)F)cc1)CC2 (mixture of isomers) [Example 10, cis-rac-4-(4-Fluoro-phenyl)-8-[2-(4-trifluoromethyl-phenyl)-cyclohexyl]-2,8-diaza-spiro[4.5]decan-1-one] | 91
O=C1NCC(c2ccccc2)C12CCN(C1CCCCC1(O)c1ccc(F)cc1)CC2 (centres unmarked) [Example 11, 8-[2-(4-Fluoro-phenyl)-2-hydroxy-cyclohexyl]-4-phenyl-2,8-diaza-spiro[4.5]decan-1-one] | 70
O=C1NCC(c2ccc(F)cc2)C12CCN(C1CCCCC1(O)c1ccccc1F)CC2 (centres unmarked) [Example 16, 4-(4-Fluoro-phenyl)-8-[2-(2-fluoro-phenyl)-2-hydroxy-cyclohexyl]-2,8-diaza-spiro[4.5]decan-1-one] | 69
O=C1NCC(c2ccc(F)cc2)C12CCN(C1CCCCC1(O)c1cccc(Cl)c1)CC2 (centres unmarked) [Example 17, 8-[2-(3-Chloro-phenyl)-2-hydroxy-cyclohexyl]-4-(4-fluoro-phenyl)-2,8-diaza-spiro[4.5]decan-1-one] | 73
O=C1NCC(c2ccc(F)cc2)C12CCN(C1COCCC1(O)c1ccccc1)CC2 (stereo not drawn) [Example 29, 4-(4-Fluoro-phenyl)-8-trans-(4-hydroxy-4-phenyl-tetrahydro-pyran-3-yl)-2,8-diaza-spiro[4.5]decan-1-one] | 91
